IC50 data for 19 molecules are collected here from patent US8378104B2 (OSI Pharmaceuticals, LLC, priority 2010, dated 2013).

As usually defined, the IC50 is the concentration at which inhibition is half-maximal.

Counter-ions that a name gives are not always drawn. Like-named read-outs stand apart in the source and are kept apart here.

In experiment [1] the target is T1, TAK1-TAB1 fusion protein (Homo sapiens, UniProt O43318).
T1 construct: purchased Carna
T1 sequence (O43318 with tags, fused parts or gaps limits assumed): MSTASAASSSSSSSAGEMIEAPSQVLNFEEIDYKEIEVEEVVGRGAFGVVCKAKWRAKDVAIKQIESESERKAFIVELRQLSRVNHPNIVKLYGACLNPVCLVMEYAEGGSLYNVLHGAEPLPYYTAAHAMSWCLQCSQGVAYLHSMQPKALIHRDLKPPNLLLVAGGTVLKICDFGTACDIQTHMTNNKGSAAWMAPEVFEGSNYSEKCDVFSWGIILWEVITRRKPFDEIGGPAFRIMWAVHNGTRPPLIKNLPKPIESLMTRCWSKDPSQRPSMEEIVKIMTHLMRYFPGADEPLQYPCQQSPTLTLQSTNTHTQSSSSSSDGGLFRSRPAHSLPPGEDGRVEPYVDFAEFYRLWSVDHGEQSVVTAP
Kind of experiment: TAK1 biochemical assay (AlphaScreen, GST-MAP2K7 substrate).

Experiment [2] has as its system p-p38 in HCT-116 cells. Kind of experiment: Phospho-p38 Meso Scale ELISA assay, TNFα-stimulated HCT-116 cells. The format is cell-based. The conditions noted are these: Homo sapiens, read-out: mean HCT-116 p-p38 ELISA IC50 (Col. C). In outline:
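Phospho-p38 measured by Meso Scale ELISA on diluted lysates, captured overnight at 4° C. Before lysis, HCT-116 cells were serum-reduced (1% FCS, 2 h), treated with compounds 4 h at 37° C and stimulated 10 min with 10 ng/mL TNFα final.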
Background: ELISA stands for enzyme-linked immunosorbent assay.

Experiment [3] concerns pJNK in HCT-116 cells. Kind of experiment: Phospho-JNK (Thr183/Tyr185) Meso Scale ELISA assay, TNFα-stimulated HCT-116 cells. The format is cell-based. Conditions: Homo sapiens, read-out: mean HCT-116 pJNK ELISA IC50 (Col. B). Summed up:
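Meso Scale ELISA read of phospho-JNK (Thr183/Tyr185) in lysed HCT-116 cells. Cells were serum-reduced to 1% FCS for 2 hours, exposed to test drug for 4 hrs at 37° C, then given 10 ng/mL TNFα (final) for 10 minutes before lysis.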

The mark [4] stands for this setting: TAK1-TAB1 fusion protein, GST-MAP2K7 substrate, read-out: mean TAK1 IC50 (Col. A).

On to `CC(=O)N1CCC(n2cc(-c3cnc(N)c4oc(-c5ccc6[nH]ncc6c5)cc34)cn2)CC1` [Example 94, 1-(4-{4-[7-amino-2-(1H-indazol-5-yl)furo[2,3-c]pyridin-4-yl]-1H-pyrazol-1-yl}piperidin-1-yl)ethanone], for which the IC50 in experiment [1] (setting [4]) was in the range of 100 to 1000 nM; in experiment [2], 1000 to 10000 nM; in experiment [3] it was 100 to 1000 nM.
For the molecule `CC(=O)N1CCC(n2cc(-c3cnc(N)c4oc(-c5cccc([N+](=O)[O-])c5)cc34)cn2)CC1` [Example 112, 1-(4-{4-[7-amino-2-(3-nitrophenyl)furo[2,3-c]pyridin-4-yl]-1H-pyrazol-1-yl}piperidin-1-yl)ethanone], the 50% inhibitory concentration (IC50) was < 100 nM in experiment [1] (setting [4]), 100 to 1000 nM in experiment [2] and 100 to 1000 nM in experiment [3].
Take `CC(=O)N1CCC(n2cc(-c3cnc(N)c4oc(-c5ccc6ncn(C)c6c5)cc34)cn2)CC1` [Example 111, 1-(4-{4-[7-amino-2-(1-methyl-1H-benzimidazol-6-yl)furo[2,3-c]pyridin-4-yl]-1H-pyrazol-1-yl}piperidin-1-yl)ethanone]: the values for the IC50 in experiment [1] (setting [4]), in experiment [2] and in experiment [3] were 100 to 1000 nM, > 10000 nM and 1000 to 10000 nM, respectively.
`Cn1cc(-c2cnc(N)c3oc(-c4csc5cnccc45)cc23)cn1` [Example 290, 4-(1-methyl-1H-pyrazol-4-yl)-2-thieno[2,3-c]pyridin-3-yl-furo[2,3-c]pyridin-7-ylamine]: the IC50 in experiment [1], in experiment [2] and in experiment [3] was 100 to 1000 nM in each case.
For the molecule `CC(=O)N1CC(n2cc(-c3cnc(N)c4oc(-c5csc6cnccc56)cc34)cn2)C1` [Example 316, 1-{3-[4-(7-amino-2-thieno[2,3-c]pyridin-3-yl-furo[2,3-c]pyridin-4-yl)-pyrazol-1-yl]-azetidin-1-yl}-ethanone], the IC50 in experiment [1] (setting [4]) is < 100 nM; in experiment [2], 100 to 1000 nM; in experiment [3] it was 100 to 1000 nM.
Regarding `Nc1ncc(-c2cnn(C3CCN(CCF)CC3)c2)c2cc(-c3cccc4cnccc34)oc12` [Example 83, 4-{1-[1-(2-fluoroethyl)piperidin-4-yl]-1H-pyrazol-4-yl}-2-(isoquinolin-5-yl)furo[2,3-c]pyridin-7-amine], the 50% inhibitory concentration (IC50) in experiment [1] (setting [4]) is 100 to 1000 nM; in experiment [2], 100 to 1000 nM; in experiment [3], < 100 nM.
Turning to `CC(=O)N1CCC(n2cc(-c3cnc(N)c4oc(-c5c[nH]c6cnccc56)cc34)cn2)CC1` [Example 86, 1-(4-{4-[7-amino-2-(1H-pyrrolo[2,3-c]pyridin-3-yl)furo[2,3-c]pyridin-4-yl]-1H-pyrazol-1-yl}piperidin-1-yl)ethanone], the IC50 in experiment [1] (setting [4]) was < 100 nM; in experiment [2] it was 1000 to 10000 nM; in experiment [3], 1000 to 10000 nM.
Take `CC(=O)N1CCC(n2cc(-c3cnc(N)c4oc(-c5ccc(O)c(F)c5)cc34)cn2)CC1` [Example 123, 1-(4-{4-[7-amino-2-(3-fluoro-4-hydroxyphenyl)furo[2,3-c]pyridin-4-yl]-1H-pyrazol-1-yl}piperidin-1-yl)ethanone]: the IC50 in experiment [1] (setting [4]) lay within 100 to 1000 nM; in experiment [2] it was 1000 to 10000 nM; in experiment [3] it was 1000 to 10000 nM.
Consider `CC(=O)N1CCC(n2cc(-c3cnc(N)c4oc(-c5ccc6c(c5)CCC(=O)N6)cc34)cn2)CC1` [Example 154, 6-{4-[1-(1-acetylpiperidin-4-yl)-1H-pyrazol-4-yl]-7-aminofuro[2,3-c]pyridin-2-yl}-3,4-dihydroquinolin-2(1H)-one], for which the values for the half-inhibitory concentration (IC50) in experiment [1] (setting [4]), in experiment [2] and in experiment [3] were 100 to 1000 nM, 1000 to 10000 nM and 1000 to 10000 nM, respectively.
`CC(=O)N1CCC(n2cc(-c3cnc(N)c4oc(-c5c(C)sc6cnccc56)cc34)cn2)CC1` [Example 253, 1-(4-{4-[7-amino-2-(2-methylthieno[2,3-c]pyridin-3-yl)furo[2,3-c]pyridin-4-yl]-1H-pyrazol-1-yl}piperidin-1-yl)ethanone trifluoroacetate]: the values for the IC50 in experiment [1] (setting [4]), in experiment [2] and in experiment [3] were < 100 nM, 1000 to 10000 nM and 100 to 1000 nM, respectively.
Take `CC(=O)N1CCC(n2cc(-c3cnc(N)c4oc(-c5ccc6c(c5)CCO6)cc34)cn2)CC1` [Example 108, 1-(4-{4-[7-amino-2-(2,3-dihydro-1-benzofuran-5-yl)furo[2,3-c]pyridin-4-yl]-1H-pyrazol-1-yl}piperidin-1-yl)ethanone]: the IC50 in experiment [1] (setting [4]) was 100 to 1000 nM; in experiment [2] it was < 100 nM; in experiment [3] it was 100 to 1000 nM.
Turning to `CC(=O)N1CCC(n2cc(-c3cnc(N)c4oc(-c5cn[nH]c5)cc34)cn2)CC1` [Example 115, 1-(4-{4-[7-amino-2-(1H-pyrazol-4-yl)furo[2,3-c]pyridin-4-yl]-1H-pyrazol-1-yl}piperidin-1-yl)ethanone], the IC50 in experiment [1] (setting [4]) is 100 to 1000 nM; in experiment [2], > 10000 nM; in experiment [3] it was 1000 to 10000 nM.
With `CC(=O)N1CCC(n2cc(-c3cnc(N)c4oc(-c5csc6cnccc56)cc34)cn2)CC1` [Example 189, 1-(4-{4-[7-amino-2-(thieno[2,3-c]pyridin-3-yl)furo[2,3-c]pyridin-4-yl]-1H-pyrazol-1-yl}piperidin-1-yl)ethanone], the half-inhibitory concentration (IC50) in experiment [1] (setting [4]) was < 100 nM; in experiment [2], 100 to 1000 nM; in experiment [3], < 100 nM.
For `COc1nn([C@H]2CC[C@@H](O)CC2)cc1-c1cnc(N)c2oc(-c3csc4cnccc34)cc12` [Example 303, 4-[4-(7-amino-2-thieno[2,3-c]pyridin-3-yl-furo[2,3-c]pyridin-4-yl)-3-methoxy-pyrazol-1-yl]-cyclohexanol], the values for the IC50 in experiment [1] (setting [4]), in experiment [2] and in experiment [3] were 100 to 1000 nM, 1000 to 10000 nM and 100 to 1000 nM, respectively.
For `CC(=O)N1CCC(n2cc(-c3cnc(N)c4oc(-c5cccc6c5CC(=O)N6)cc34)cn2)CC1` [Example 227, 4-{4-[1-(1-acetylpiperidin-4-yl)-1H-pyrazol-4-yl]-7-aminofuro[2,3-c]pyridin-2-yl}-1,3-dihydro-2H-indol-2-one], the results for the IC50 in experiment [1] (setting [4]), in experiment [2] and in experiment [3] were 100 to 1000 nM, 1000 to 10000 nM and 1000 to 10000 nM, respectively.
For the molecule `Nc1ncc(-c2cnn(C3CCCCC3)c2)c2cc(-c3c[nH]c4cnccc34)oc12` [Example 89, 4-(1-cyclohexyl-1H-pyrazol-4-yl)-2-(1H-pyrrolo[2,3-c]pyridin-3-yl)furo[2,3-c]pyridin-7-amine], the IC50 is < 100 nM in experiment [1] (setting [4]), 100 to 1000 nM in experiment [2] and 100 to 1000 nM in experiment [3].
As for `CC(=O)N1CCC(n2cc(-c3cnc(N)c4oc(-c5cccc6[nH]ncc56)cc34)cn2)CC1` [Example 177, 1-(4-{4-[7-amino-2-(1H-indazol-4-yl)furo[2,3-c]pyridin-4-yl]-1H-pyrazol-1-yl}piperidin-1-yl)ethanone], the IC50 is < 100 nM in experiment [1] (setting [4]), 100 to 1000 nM in experiment [2] and 100 to 1000 nM in experiment [3].
Take `CC(=O)N1CCC(n2cc(-c3cnc(N)c4oc(-c5cc(C)c(O)c(C)c5)cc34)cn2)CC1` [Example 138, 1-(4-{4-[7-amino-2-(4-hydroxy-3,5-dimethylphenyl)furo[2,3-c]pyridin-4-yl]-1H-pyrazol-1-yl}piperidin-1-yl)ethanone]: the concentration for half-maximal inhibition (IC50) fell in the range of 1000 to 10000 nM in experiment [1] (setting [4]), 1000 to 10000 nM in experiment [2] and 100 to 1000 nM in experiment [3].
Regarding `CC(=O)N1CCC(n2cc(-c3cnc(N)c4oc(C5=CCCCC5)cc34)cn2)CC1` [Example 142, 1-(4-{4-[7-amino-2-(cyclohex-1-en-1-yl)furo[2,3-c]pyridin-4-yl]-1H-pyrazol-1-yl}piperidin-1-yl)ethanone], the IC50 is 100 to 1000 nM in experiment [1] (setting [4]), 1000 to 10000 nM in experiment [2] and 100 to 1000 nM in experiment [3].
